Test results as given in the supplement of paper PMC11061612.

Tests used:
[1] = system: COR-L105 (Lung Adenocarcinoma); test: Bliss excess, mean over the matrix (fraction); higher = more synergy
How it was run: (§1)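 After 24 hours at 37°C and 5% CO2 in 1536-well plates, cells in DMEM/F12 or RPMI plus 10% FBS received two-drug dose matrices for 72 hours. Viability came from CellTiter-Glo 2.0 luminescence and was scaled as inhibition, anchored at 0 by vehicle wells and at 1 by blank wells. Combination Emax is taken as the second-highest inhibition in the matrix, and Bliss excess as the observed combination effect less EA + EB − EA·EB, with EA and EB the single-agent effects.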

[2] = system: MG-63 (Osteosarcoma); test: as above
How it was run: as §1

[3] = system: NCI-H1435 (Non-Small Cell Lung Carcinoma); test: as above
How it was run: as §1

[4] = system: SBC-3 (Small Cell Lung Carcinoma); test: as above
How it was run: as §1

[5] = system: L-363 (Plasma Cell Myeloma); test: as above
How it was run: as §1

[6] = system: RPMI-8402 (T-Lymphoblastic Leukemia); test: as above
How it was run: as §1

[7] = system: MDA-MB-175-VII (Breast Carcinoma); test: as above
How it was run: as §1

[8] = system: KNS-62 (Squamous Cell Lung Carcinoma); test: as above
How it was run: as §1

[9] = system: BC-1 (B-Cell Non-Hodgkin's Lymphoma); test: as above
How it was run: as §1

[10] = system: GCIY (Gastric Carcinoma); test: as above
How it was run: as §1

[11] = system: NCI-H835 (Other Solid Carcinomas); test: as above
How it was run: as §1

[12] = system: NCI-H2009 (Lung Adenocarcinoma); test: as above
How it was run: as §1

[13] = system: SW1463 (Colorectal Carcinoma); test: as above
How it was run: as §1

[14] = system: NTERA-2-cl-D1 (Other Solid Carcinomas); test: as above
How it was run: as §1

[15] = system: CAL-85-1 (Breast Carcinoma); test: as above
How it was run: as §1

[16] = system: NCI-H2452 (Mesothelioma); test: as above
How it was run: as §1

[17] = system: C32 (Melanoma); test: as above
How it was run: as §1

[18] = system: OVKATE (Ovarian Carcinoma); test: as above
How it was run: as §1

[19] = system: NCI-H1648 (Lung Adenocarcinoma); test: as above
How it was run: as §1

[20] = system: A375 (Melanoma); test: as above
How it was run: as §1

[21] = system: NCI-H2023 (Non-Small Cell Lung Carcinoma); test: as above
How it was run: as §1

[22] = system: SK-MEL-24 (Melanoma); test: as above
How it was run: as §1

[23] = system: MRK-nu-1 (Breast Carcinoma); test: as above
How it was run: as §1

[24] = system: COR-L105 (Lung Adenocarcinoma); test: combination Emax (second highest fraction inhibited in the dose matrix, 72 h); higher = more inhibition; extreme values may be limits of the assay
How it was run: as §1

[25] = system: MG-63 (Osteosarcoma); test: as above
How it was run: as §1

[26] = system: NCI-H1435 (Non-Small Cell Lung Carcinoma); test: as above
How it was run: as §1

[27] = system: SBC-3 (Small Cell Lung Carcinoma); test: as above
How it was run: as §1

[28] = system: L-363 (Plasma Cell Myeloma); test: as above
How it was run: as §1

[29] = system: RPMI-8402 (T-Lymphoblastic Leukemia); test: as above
How it was run: as §1

[30] = system: MDA-MB-175-VII (Breast Carcinoma); test: as above
How it was run: as §1

[31] = system: KNS-62 (Squamous Cell Lung Carcinoma); test: as above
How it was run: as §1

[32] = system: BC-1 (B-Cell Non-Hodgkin's Lymphoma); test: as above
How it was run: as §1

[33] = system: GCIY (Gastric Carcinoma); test: as above
How it was run: as §1

[34] = system: NCI-H835 (Other Solid Carcinomas); test: as above
How it was run: as §1

[35] = system: NCI-H2009 (Lung Adenocarcinoma); test: as above
How it was run: as §1

[36] = system: SW1463 (Colorectal Carcinoma); test: as above
How it was run: as §1

[37] = system: NTERA-2-cl-D1 (Other Solid Carcinomas); test: as above
How it was run: as §1

[38] = system: CAL-85-1 (Breast Carcinoma); test: as above
How it was run: as §1

[39] = system: NCI-H2452 (Mesothelioma); test: as above
How it was run: as §1

[40] = system: C32 (Melanoma); test: as above
How it was run: as §1

[41] = system: OVKATE (Ovarian Carcinoma); test: as above
How it was run: as §1

[42] = system: NCI-H1648 (Lung Adenocarcinoma); test: as above
How it was run: as §1

[43] = system: A375 (Melanoma); test: as above
How it was run: as §1

[44] = system: NCI-H2023 (Non-Small Cell Lung Carcinoma); test: as above
How it was run: as §1

[45] = system: SK-MEL-24 (Melanoma); test: as above
How it was run: as §1

[46] = system: MRK-nu-1 (Breast Carcinoma); test: as above
How it was run: as §1
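Wherever Bliss excess, mean over the matrix is given: after 72 h of two-drug dosing.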

SMILES: Cc1cc2ncnn2cc1Nc1ncc2c(n1)n(C1CCOCC1)c(=O)n2C [AZD7648] + COc1cc([C@@H]2c3cc4c(cc3[C@@H](O[C@@H]3O[C@@H]5CO[C@@H](C)O[C@H]5[C@H](O)[C@H]3O)[C@H]3COC(=O)[C@H]23)OCO4)cc(OC)c1O [Etoposide] (first compound max 10 µM, 7x7, partner max 10 µM)
- Bliss excess [1]: 0.0299
- Bliss excess [2]: 0.0878
- Bliss excess [3]: 0.0043
- Bliss excess [4]: 0.119
- Bliss excess [5]: 0.0582
- Bliss excess [6]: 0.0847
- Bliss excess [7]: 0.0478
- Bliss excess [8]: 0.056
- Bliss excess [9]: 0.0896
- Bliss excess [10]: 0.125
- Bliss excess [11]: 0.024
- Bliss excess [12]: 0.116
- Bliss excess [13]: -0.0081
- Bliss excess [14]: 0.137
- Bliss excess [15]: 0.0483
- Bliss excess [16]: 0.0449
- Bliss excess [17]: 0.0402
- Bliss excess [18]: -0.0214
- Bliss excess [19]: -0.0577
- Bliss excess [20]: 0.119
- Bliss excess [21]: 0.0401
- Bliss excess [22]: 0.0438
- Bliss excess [23]: 0.0829
- combination Emax [24]: 0.338
- combination Emax [25]: 0.874
- combination Emax [26]: 0.286
- combination Emax [27]: 0.94
- combination Emax [28]: 0.702
- combination Emax [29]: 1
- combination Emax [30]: 0.399
- combination Emax [31]: 0.456
- combination Emax [32]: 0.984
- combination Emax [33]: 0.759
- combination Emax [34]: 0.692
- combination Emax [35]: 0.824
- combination Emax [36]: 0.371
- combination Emax [37]: 0.575
- combination Emax [38]: 0.629
- combination Emax [39]: 0.355
- combination Emax [40]: 0.526
- combination Emax [41]: 0.266
- combination Emax [42]: 0.424
- combination Emax [43]: 0.901
- combination Emax [44]: 0.621
- combination Emax [45]: 0.677
- combination Emax [46]: 0.726

SMILES: C[C@@H](Oc1cc(-c2cnn(C3CCNCC3)c2)cnc1N)c1c(Cl)ccc(F)c1Cl [Crizotinib] + CC1=C(C(=CC=C1)Cl)NC(=O)C2=CN=C(S2)NC3=CC(=NC(=N3)C)N4CCN(CC4)CCO [Dasatinib] (first compound max 10 µM, 7x7, partner max 2 µM)
- Bliss excess [1]: -0.0313
- Bliss excess [2]: 0.0498
- Bliss excess [3]: 0.0039
- Bliss excess [4]: 0.0493
- Bliss excess [5]: 0.004
- Bliss excess [6]: 0.0006
- Bliss excess [7]: -0.0527
- Bliss excess [8]: -0.0258
- Bliss excess [9]: 0.0312
- Bliss excess [10]: 0.0537
- Bliss excess [11]: 0.0045
- Bliss excess [12]: 0.0662
- Bliss excess [13]: -0.0926
- Bliss excess [14]: 0.0073
- Bliss excess [15]: 0.001
- Bliss excess [16]: 0.0069
- Bliss excess [17]: -0.0461
- Bliss excess [18]: 0.06
- Bliss excess [19]: 0.0331
- Bliss excess [20]: -0.0256
- Bliss excess [21]: -0.012
- Bliss excess [22]: -0.0523
- Bliss excess [23]: -0.0711
- combination Emax [24]: 0.481
- combination Emax [25]: 0.949
- combination Emax [26]: 0.255
- combination Emax [27]: 0.957
- combination Emax [28]: 0.632
- combination Emax [29]: 0.971
- combination Emax [30]: 0.0779
- combination Emax [31]: 0.302
- combination Emax [32]: 0.94
- combination Emax [33]: 0.863
- combination Emax [34]: 0.854
- combination Emax [35]: 0.88
- combination Emax [36]: 0.133
- combination Emax [37]: 0.956
- combination Emax [38]: 0.778
- combination Emax [39]: 0.744
- combination Emax [40]: 0.425
- combination Emax [41]: 0.572
- combination Emax [42]: 0.908
- combination Emax [43]: 0.502
- combination Emax [44]: 0.607
- combination Emax [45]: 0.871
- combination Emax [46]: 0.218
